From patent US10851098B2, “Azole amides and amines as alpha v integrin inhibitors” (BRISTOL-MYERS SQUIBB COMPANY, priority 2016, dated 2020) come the findings set out here.

The target in one test is human αVβ8 (Homo sapiens, UniProt P06756+P26012). Kind of test: human αVβ8 HTRF binding assay. As to the method: (§1) All binding assays used the HTRF (homogeneous time resolved fluorescence) technology from Cisbio International, therefore all assays are described as HTRF binding assays. The assay results for the Examples are listed above together with the characterization data. The HTRF binding assays are established for the following integrins: human αVβ6, human αVβ1, human αVβ3, human αVβ5, and human αVβ8. All assays used the following assay buffer: 20 mM Tris, pH 7.4, 1 mM MgCl2, 1 mM MnCl2, 0.01% Tween 20, and 0.01% BSA. Alternatively, a SPA-based assay was used for evaluation of receptor binding. […]
(In general: In TR-FRET formats the signal depends on donor and acceptor labels being close together.)

A further test has as its target T1, human αVβ6 (Homo sapiens, UniProt P06756+P18564).
T1 construct: purchased R & D systems 3817-AV
As to the kind of experiment: human αVβ6 HTRF binding assay. The method in brief: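 HTRF binding format with biotinylated integrin, FITC-fibronectin and streptavidin-terbium, run in 20 mM Tris pH 7.4, 1 mM MgCl2, 1 mM MnCl2, 0.01% Tween 20, 0.01% BSA. A SPA-based binding assay was an alternative.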

A further test concerns the target human αVβ5 (Homo sapiens, UniProt P06756+P18084). As to the kind of experiment: human αVβ5 HTRF binding assay. The method, then:
as §1

The target in the next test is human αVβ1 (Homo sapiens, UniProt P05556+P06756). Kind of test: human αVβ1 HTRF binding assay. As to the method: (§2) All binding assays used the HTRF (homogeneous time resolved fluorescence) technology from Cisbio International, therefore all assays are described as HTRF binding assays. The assay results for the Examples are listed above together with the characterization data. The HTRF binding assays are established for the following integrins: human αVβ6, human αVβ1, human αVβ3, human αVβ5, and human αVβ8. All assays used the following assay buffer: 20 mM Tris, pH 7.4, 1 mM MgCl2, 1 mM MnCl2, 0.01% Tween 20, and 0.01% BSA. Alternatively, a SPA-based assay was used for evaluation of receptor binding.
(§3) […]

The target of the next test is human αVβ3 (Homo sapiens, UniProt P05106+P06756). As to the kind of experiment: human αVβ3 HTRF binding assay. The method, then:
as §2, §3

Like-named read-outs stand apart in the source and are kept apart here.

Chain of human αVβ5 (P06756 31-992 limits assumed): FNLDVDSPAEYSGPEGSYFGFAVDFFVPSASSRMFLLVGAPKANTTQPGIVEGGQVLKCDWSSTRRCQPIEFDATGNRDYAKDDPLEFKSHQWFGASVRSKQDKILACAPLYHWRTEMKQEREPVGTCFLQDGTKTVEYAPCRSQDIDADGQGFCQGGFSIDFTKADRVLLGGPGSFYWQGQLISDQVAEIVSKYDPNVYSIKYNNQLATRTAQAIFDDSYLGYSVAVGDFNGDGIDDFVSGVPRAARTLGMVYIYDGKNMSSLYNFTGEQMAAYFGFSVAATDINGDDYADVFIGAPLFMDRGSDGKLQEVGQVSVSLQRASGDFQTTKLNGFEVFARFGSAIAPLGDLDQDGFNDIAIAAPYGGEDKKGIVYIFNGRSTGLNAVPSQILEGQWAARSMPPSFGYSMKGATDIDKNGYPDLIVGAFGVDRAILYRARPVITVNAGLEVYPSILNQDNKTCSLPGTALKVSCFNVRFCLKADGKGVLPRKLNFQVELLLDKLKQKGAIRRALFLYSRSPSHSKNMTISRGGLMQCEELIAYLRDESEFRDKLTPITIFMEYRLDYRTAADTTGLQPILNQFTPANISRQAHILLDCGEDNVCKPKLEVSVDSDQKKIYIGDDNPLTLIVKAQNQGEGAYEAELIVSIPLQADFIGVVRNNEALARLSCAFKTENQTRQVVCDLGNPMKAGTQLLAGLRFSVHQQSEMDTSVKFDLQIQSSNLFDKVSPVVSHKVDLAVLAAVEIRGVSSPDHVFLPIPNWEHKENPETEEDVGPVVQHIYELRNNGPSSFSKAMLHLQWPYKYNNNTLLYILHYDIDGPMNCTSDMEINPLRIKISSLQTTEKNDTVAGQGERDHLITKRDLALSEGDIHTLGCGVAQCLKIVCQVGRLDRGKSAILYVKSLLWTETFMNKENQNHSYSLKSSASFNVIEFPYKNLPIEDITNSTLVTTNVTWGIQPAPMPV
Chain of human αVβ5 (P18084 24-719 limits assumed): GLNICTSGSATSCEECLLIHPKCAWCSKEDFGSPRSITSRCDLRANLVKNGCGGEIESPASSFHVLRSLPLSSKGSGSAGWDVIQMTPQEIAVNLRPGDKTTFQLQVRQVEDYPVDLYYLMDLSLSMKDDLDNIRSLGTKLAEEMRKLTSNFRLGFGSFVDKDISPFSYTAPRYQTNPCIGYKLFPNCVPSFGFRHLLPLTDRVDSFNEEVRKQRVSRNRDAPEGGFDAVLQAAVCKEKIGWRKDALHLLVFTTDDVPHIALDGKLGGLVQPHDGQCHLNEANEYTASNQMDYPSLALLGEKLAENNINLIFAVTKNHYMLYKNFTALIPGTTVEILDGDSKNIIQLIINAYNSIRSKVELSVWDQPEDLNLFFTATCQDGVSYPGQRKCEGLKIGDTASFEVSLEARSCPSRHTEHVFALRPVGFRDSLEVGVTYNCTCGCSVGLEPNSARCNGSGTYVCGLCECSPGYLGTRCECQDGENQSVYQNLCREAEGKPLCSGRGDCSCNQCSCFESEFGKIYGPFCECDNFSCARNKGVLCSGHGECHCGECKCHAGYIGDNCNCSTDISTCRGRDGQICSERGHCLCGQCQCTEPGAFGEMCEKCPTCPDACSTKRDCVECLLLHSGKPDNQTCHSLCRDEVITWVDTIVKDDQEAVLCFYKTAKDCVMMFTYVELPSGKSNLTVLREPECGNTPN
Chain of human αVβ3 (P06756 31-992 limits assumed): as the sequence (P06756 31-992 limits assumed) above
Chain of human αVβ3 (P05106 27-718 limits assumed): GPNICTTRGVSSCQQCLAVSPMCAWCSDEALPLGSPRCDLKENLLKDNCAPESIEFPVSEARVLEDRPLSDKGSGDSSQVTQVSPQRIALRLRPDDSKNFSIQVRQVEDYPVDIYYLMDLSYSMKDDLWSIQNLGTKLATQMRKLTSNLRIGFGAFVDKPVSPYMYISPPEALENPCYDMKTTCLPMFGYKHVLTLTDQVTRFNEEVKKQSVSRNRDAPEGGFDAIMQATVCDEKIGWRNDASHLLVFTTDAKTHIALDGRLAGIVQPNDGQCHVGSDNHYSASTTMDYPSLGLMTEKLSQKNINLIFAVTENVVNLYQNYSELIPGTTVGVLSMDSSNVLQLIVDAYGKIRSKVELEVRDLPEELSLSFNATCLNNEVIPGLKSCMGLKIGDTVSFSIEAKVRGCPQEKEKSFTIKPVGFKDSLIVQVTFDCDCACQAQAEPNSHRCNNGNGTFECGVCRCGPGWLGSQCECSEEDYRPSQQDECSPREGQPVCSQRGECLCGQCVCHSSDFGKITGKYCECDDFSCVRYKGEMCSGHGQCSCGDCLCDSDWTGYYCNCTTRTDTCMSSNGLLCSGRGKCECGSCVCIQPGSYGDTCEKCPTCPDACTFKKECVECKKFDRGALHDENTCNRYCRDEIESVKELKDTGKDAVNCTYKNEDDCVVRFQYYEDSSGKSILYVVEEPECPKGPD
Chain of human αVβ1 (P06756 31-992 limits assumed): as the sequence (P06756 31-992 limits assumed) above
Chain of human αVβ1 (P05556 21-728 limits assumed): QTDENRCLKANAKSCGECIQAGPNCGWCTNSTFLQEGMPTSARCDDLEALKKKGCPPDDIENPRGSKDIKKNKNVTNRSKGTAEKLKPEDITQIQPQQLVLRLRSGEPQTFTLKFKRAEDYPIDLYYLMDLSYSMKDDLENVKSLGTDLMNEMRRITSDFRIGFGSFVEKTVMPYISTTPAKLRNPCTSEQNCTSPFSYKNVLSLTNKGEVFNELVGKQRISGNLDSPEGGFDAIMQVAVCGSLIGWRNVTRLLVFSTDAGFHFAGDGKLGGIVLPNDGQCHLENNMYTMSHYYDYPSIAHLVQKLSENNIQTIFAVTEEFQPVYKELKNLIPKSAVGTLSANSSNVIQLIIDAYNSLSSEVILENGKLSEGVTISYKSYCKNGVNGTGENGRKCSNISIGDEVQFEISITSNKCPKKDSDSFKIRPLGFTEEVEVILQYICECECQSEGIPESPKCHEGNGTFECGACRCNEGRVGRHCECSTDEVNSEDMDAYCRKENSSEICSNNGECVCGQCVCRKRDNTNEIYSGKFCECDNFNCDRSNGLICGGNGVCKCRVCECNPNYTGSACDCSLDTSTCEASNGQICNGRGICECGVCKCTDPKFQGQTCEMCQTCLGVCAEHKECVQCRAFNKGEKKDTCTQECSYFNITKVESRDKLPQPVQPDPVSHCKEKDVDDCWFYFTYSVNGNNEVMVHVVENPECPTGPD
Chain of human αVβ8 (P06756 31-992 limits assumed): as the sequence (P06756 31-992 limits assumed) above
Chain of human αVβ8 (P26012 43-684 limits assumed): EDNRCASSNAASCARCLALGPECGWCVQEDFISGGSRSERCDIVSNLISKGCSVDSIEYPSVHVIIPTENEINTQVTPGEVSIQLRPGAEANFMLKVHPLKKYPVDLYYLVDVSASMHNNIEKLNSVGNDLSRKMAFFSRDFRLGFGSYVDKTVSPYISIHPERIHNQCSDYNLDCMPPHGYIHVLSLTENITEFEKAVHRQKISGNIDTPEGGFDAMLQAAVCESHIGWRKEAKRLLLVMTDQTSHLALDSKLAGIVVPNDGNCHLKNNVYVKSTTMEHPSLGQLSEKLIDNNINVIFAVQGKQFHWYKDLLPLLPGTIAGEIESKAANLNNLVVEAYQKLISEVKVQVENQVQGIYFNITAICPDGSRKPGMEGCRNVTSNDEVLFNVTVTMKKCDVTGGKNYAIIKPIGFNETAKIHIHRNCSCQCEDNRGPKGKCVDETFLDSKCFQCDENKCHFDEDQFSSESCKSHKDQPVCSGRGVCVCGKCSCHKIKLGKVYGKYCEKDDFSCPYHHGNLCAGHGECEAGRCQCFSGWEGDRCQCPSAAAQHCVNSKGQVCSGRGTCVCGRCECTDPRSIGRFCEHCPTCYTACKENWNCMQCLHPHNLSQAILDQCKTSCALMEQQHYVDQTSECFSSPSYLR
T1 sequence (P06756 31-992 limits assumed): as the sequence (P06756 31-992 limits assumed) above
T1 sequence (P18564 22-707 limits assumed): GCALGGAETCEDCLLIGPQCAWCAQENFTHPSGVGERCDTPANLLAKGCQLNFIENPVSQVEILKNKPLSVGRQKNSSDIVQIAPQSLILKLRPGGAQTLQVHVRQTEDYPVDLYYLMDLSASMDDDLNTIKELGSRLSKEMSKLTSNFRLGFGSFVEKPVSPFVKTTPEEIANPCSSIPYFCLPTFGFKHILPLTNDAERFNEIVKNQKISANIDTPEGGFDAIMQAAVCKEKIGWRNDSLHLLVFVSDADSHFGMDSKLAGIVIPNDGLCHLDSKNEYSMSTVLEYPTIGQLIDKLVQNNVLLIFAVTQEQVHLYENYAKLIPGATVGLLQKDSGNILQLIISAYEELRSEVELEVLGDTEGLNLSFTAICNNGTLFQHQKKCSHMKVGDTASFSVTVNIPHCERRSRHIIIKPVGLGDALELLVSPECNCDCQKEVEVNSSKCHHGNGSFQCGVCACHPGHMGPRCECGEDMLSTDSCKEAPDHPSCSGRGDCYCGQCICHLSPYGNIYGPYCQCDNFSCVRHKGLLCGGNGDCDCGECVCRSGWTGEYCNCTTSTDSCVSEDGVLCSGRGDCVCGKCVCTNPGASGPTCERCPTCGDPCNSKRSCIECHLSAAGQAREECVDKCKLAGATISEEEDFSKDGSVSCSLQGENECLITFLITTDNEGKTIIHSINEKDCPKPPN

For the molecule `Cc1cc(C)c(S(=O)(=O)N[C@@H](CNC(=O)c2cnn(CCc3ccc4c(n3)NCCC4)c2)C(=O)O)c(C)c1` [Example 10, (S)-3-(1-(2-(5,6,7,8-Tetrahydro-1,8-naphthyridin-2-yl)ethyl)-1H-pyrazole-4-carboxamido)-2-((2,4,6-trimethylphenyl)sulfonamido)propanoic acid], the IC50 at human αVβ8 was determined as 14 nM; at human αVβ6, 0.5 nM; on human αVβ5, 0.2 nM; on human αVβ1 it was 6.3 nM; at human αVβ3 (read-out: Human αVβ3 IC50) it was 1.9 nM.
Turning to `O=C(N[C@@H](CNC(=O)c1cnn(CCc2ccc3c(n2)NCCC3)c1)C(=O)O)OCc1ccccc1` [Example 12, (S)-2-(((Benzyloxy)carbonyl)amino)-3-(1-(2-(5,6,7,8-tetrahydro-1,8-naphthyridin-2-yl)ethyl)-1H-pyrazole-4-carboxamido)propanoic acid], the IC50 on human αVβ8 was 49 nM; on human αVβ6, 1.1 nM; on human αVβ5, 0.2 nM; on human αVβ3 (read-out: Human αVβ3 IC50), 2.1 nM.
As for `CCCCOC(=O)N[C@@H](CNC(=O)c1cnn(CCc2ccc3c(n2)NCCC3)c1)C(=O)O` [Example 20, (S)-2-((Butoxycarbonyl)amino)-3-(1-(2-(5,6,7,8-tetrahydro-1,8-naphthyridin-2-yl)ethyl)-1H-pyrazole-4-carboxamido)propanoic acid], the IC50 on human αVβ8 amounted to 86 nM; at human αVβ6 it was 1.1 nM; on human αVβ5 it was 0.2 nM; on human αVβ1, 27 nM; on human αVβ3 (read-out: Human αVβ3 IC50) it was 1.8 nM.
Taken in the same sequence, the figures for `Cc1cc(C)c(S(=O)(=O)N[C@@H](CNC(=O)c2cn(CCc3ccc4c(n3)NCCC4)nn2)C(=O)O)c(C)c1` [Example 111] were 63 nM, 0.8 nM, 1.1 nM, 46 nM and 6.4 nM.
Taken in the same sequence, the figures for `Cc1cc(C)c(S(=O)(=O)N[C@@H](CNC(=O)c2ccn(CCc3ccc4c(n3)NCCC4)n2)C(=O)O)c(C)c1` [Example 112] were 115 nM, 1 nM, 0.4 nM, 45 nM and 2 nM.
Taken in the same sequence, the figures for `Cc1cc(C)c(S(=O)(=O)N[C@@H](CNC(=O)c2cnn(CCc3ccc4c(n3)NCCC4)n2)C(=O)O)c(C)c1` [Example 113] were 57 nM, 1.3 nM, 0.3 nM, 111 nM and 3 nM.
On to `Cc1cc(C)c(S(=O)(=O)N[C@H](CNC(=O)c2cn(CCc3ccc4c(n3)NCCC4)cn2)C(=O)O)c(C)c1` [Example 114], for which the IC50 worked out at 156 nM at human αVβ8; 2 nM at human αVβ6; 0.5 nM on human αVβ5; 4.4 nM at human αVβ3 (printed as αVβ4, read-out: Human αVβ4 IC50).
As for `Cc1cc(C)c(S(=O)(=O)N[C@@H](CNC(=O)c2ccn(CCc3ccc4c(n3)NCCC4)c2)C(=O)O)c(C)c1` [Example 119], the IC50 at human αVβ8 is 31 nM; on human αVβ6 it was 0.5 nM; on human αVβ5, 0.2 nM; on human αVβ1, 6.3 nM; on human αVβ3 (read-out: Human αVβ3 IC50), 1.5 nM.
Taken in the same sequence, the figures for `O=C(N[C@H](CNC(=O)c1cn(CCc2ccc3c(n2)NCCC3)cn1)C(=O)O)OCc1ccccc1` [Example 121] were 246 nM, 2.3 nM, 0.3 nM, 77 nM and 1.6 nM.
`O=C(NC[C@H](NS(=O)(=O)CCN1C(=O)c2ccccc2C1=O)C(=O)O)c1cnn(CCc2ccc3c(n2)NCCC3)c1` [Example 151] returned an IC50 at human αVβ6 of 1.2 nM.
For the molecule `CCCCC(CC)COC(=O)N[C@@H](CNC(=O)c1cnn(CCc2ccc3c(n2)NCCC3)c1)C(=O)O` (stereo partly drawn) [Example 152], the IC50 at human αVβ6 came out at 0.4 nM.
On the same count and under the same terms, to `O=C(N[C@@H](CNC(=O)c1cnn(CCc2ccc3c(n2)NCCC3)c1)C(=O)O)OCC(F)(F)F` [Example 153] belongs 1.6 nM; to `O=C(NC[C@H](NS(=O)(=O)Cc1cccc(C(F)(F)F)c1)C(=O)O)c1cnn(CCc2ccc3c(n2)NCCC3)c1` [Example 154], 16 nM.
Still for that read-out and setting: to `O=C(NC[C@H](NS(=O)(=O)Cc1ccccc1Cl)C(=O)O)c1cnn(CCc2ccc3c(n2)NCCC3)c1` [Example 155] belongs 5.5 nM; to `O=C(NC[C@H](NS(=O)(=O)Cc1cccc(Br)c1)C(=O)O)c1cnn(CCc2ccc3c(n2)NCCC3)c1` [Example 156], 21 nM; to `O=C(NC[C@H](NS(=O)(=O)Cc1cc(C(F)(F)F)cc(C(F)(F)F)c1)C(=O)O)c1cnn(CCc2ccc3c(n2)NCCC3)c1` [Example 157], 16 nM.
The same measure, in the same setting: as for `Cc1cc(CS(=O)(=O)N[C@@H](CNC(=O)c2cnn(CCc3ccc4c(n3)NCCC4)c2)C(=O)O)no1` [Example 158], the figure is 29 nM; as for `O=C(NC[C@H](NS(=O)(=O)CC1CC1)C(=O)O)c1cnn(CCc2ccc3c(n2)NCCC3)c1` [Example 159], 2.7 nM.
Molecule `CCCCCCOC(=O)N[C@@H](CNC(=O)c1cnn(CCc2ccc3c(n2)NCCC3)c1)C(=O)O` [Example 160] had an IC50 on human αVβ6 of 0.7 nM.
Same read-out and setting: to `Cc1ccc(CS(=O)(=O)N[C@@H](CNC(=O)c2cnn(CCc3ccc4c(n3)NCCC4)c2)C(=O)O)cc1` [Example 161] belongs 15 nM; to `CC#CCOC(=O)N[C@@H](CNC(=O)c1cnn(CCc2ccc3c(n2)NCCC3)c1)C(=O)O` [Example 162], 2.2 nM.
The same measure, in the same setting: to `O=C(NC[C@H](NS(=O)(=O)Cc1cccc(Cl)c1)C(=O)O)c1cnn(CCc2ccc3c(n2)NCCC3)c1` [Example 163] belongs 6.2 nM; to `O=C(NC[C@H](NS(=O)(=O)CC1CCCCC1)C(=O)O)c1cnn(CCc2ccc3c(n2)NCCC3)c1` [Example 164], 6.4 nM; to `O=C(NC[C@H](NS(=O)(=O)Cc1ccc(Cl)cc1Cl)C(=O)O)c1cnn(CCc2ccc3c(n2)NCCC3)c1` [Example 165], 2.9 nM.
At human αVβ6, `O=C(NC[C@H](NS(=O)(=O)Cc1ccccc1F)C(=O)O)c1cnn(CCc2ccc3c(n2)NCCC3)c1` [Example 166] showed an IC50 of 10 nM.
`O=C(NC[C@H](NS(=O)(=O)Cc1ccncc1)C(=O)O)c1cnn(CCc2ccc3c(n2)NCCC3)c1` [Example 167] gave an IC50 on human αVβ6 of 9.5 nM.
On to `O=C(NC[C@H](NS(=O)(=O)Cc1ccc(F)cc1)C(=O)O)c1cnn(CCc2ccc3c(n2)NCCC3)c1` [Example 168], for which the IC50 on human αVβ6 amounted to 17 nM.
Still for that read-out and setting: to `N#Cc1cccc(CS(=O)(=O)N[C@@H](CNC(=O)c2cnn(CCc3ccc4c(n3)NCCC4)c2)C(=O)O)c1` [Example 169] belongs 13 nM; to `O=C(N[C@@H](CNC(=O)c1cnn(CCc2ccc3c(n2)NCCC3)c1)C(=O)O)OCCF` [Example 170], 5.5 nM; to `Cc1cc(C)c(S(=O)(=O)N[C@@H](CNC(=O)c2cnn(CCCNC3=NCCN3)c2)C(=O)O)c(C)c1` [Example 171], 14 nM.
Still for that read-out and setting: as for `Cc1cc(C)c(S(=O)(=O)N[C@@H](CNC(=O)c2cnn(CCCNC3=NCC(O)CN3)c2)C(=O)O)c(C)c1` (stereo partly drawn) [Example 172], the figure is 4.5 nM.
For `Cc1cc(C)c(S(=O)(=O)N[C@@H](CNC(=O)c2cnn(CCCNC3=NCC(F)CN3)c2)C(=O)O)c(C)c1` (stereo partly drawn) [Example 173], the IC50 at human αVβ6 was determined as 2.1 nM.
Still for that read-out and setting: to `O=C(N[C@@H](CNCc1cnn(CCc2ccc3c(n2)NCCC3)c1)C(=O)O)OCc1ccccc1` [Example 174, (S)-2-(((Benzyloxy)carbonyl)amino)-3-(((1-(2-(5,6,7,8-tetrahydro-1,8-naphthyridin-2-yl)ethyl)-1H-pyrazol-4-yl)methyl)amino)propanoic acid] belongs 6.2 nM; to `O=C(O)CCNCc1cnn(CCc2ccc3c(n2)NCCC3)c1` [Example 175, 3-(((1-(2-(5,6,7,8-Tetrahydro-1,8-naphthyridin-2-yl)ethyl)-1H-pyrazol-4-yl)methyl)amino)propanoic acid], 272 nM.
The same measure, in the same setting: as for `O=C(O)CCN(Cc1cnn(CCc2ccc3c(n2)NCCC3)c1)C(=O)OCc1ccccc1` [Example 176, 3-(((Benzyloxy)carbonyl)((1-(2-(5,6,7,8-tetrahydro-1,8-naphthyridin-2-yl)ethyl)-1H-pyrazol-4-yl)methyl)amino)propanoic acid], the figure is 249 nM.

Broadly, the IC50 is the point on the concentration scale where inhibition reaches its midpoint.
